Reference: ChEMBL document CHEMBL1201862, “PubChem BioAssay data set” (2004)
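Compound exposure: 48 hours, 5 concentrations, 96-well plates. GI50: concentration for 50% inhibition of growth.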 Active and inactive are the calls of the source. Rule as the data show it: active = GI50 up to about 1.1 µM and inactive = higher.

Tests used:
Assay in all cases: NCI-60 cell line screen, 48 h
M19-MEL = test system: M19-MEL
786-0 = test system: 786-0
SK-OV-3 = test system: SK-OV-3
RPMI-8226 = test system: RPMI-8226
MOLT-4 = test system: MOLT-4
LXFL 529 = test system: LXFL 529
KM-20L2 = test system: KM-20L2
A498 = test system: A498
HT-29 = test system: HT-29
SNB-19 = test system: SNB-19
SR = test system: SR
XF498 = test system: XF498
ACHN = test system: ACHN
DMS-114 = test system: DMS-114
OVCAR-5 = test system: OVCAR-5
HOP-92 = test system: HOP-92
SK-MEL-5 = test system: SK-MEL-5
TK-10 = test system: TK-10
UACC-62 = test system: UACC-62
SF-295 = test system: SF-295
UACC-257 = test system: UACC-257
M14 = test system: M14
SNB-78 = test system: SNB-78
SNB-75 = test system: SNB-75
HL-60 = test system: HL-60
NCI-H23 = test system: NCI-H23
DLD-1 = test system: DLD-1
HCT-116 = test system: HCT-116
NCI-H522 = test system: NCI-H522
SF-268 = test system: SF-268
DMS-273 = test system: DMS-273
SK-MEL-28 = test system: SK-MEL-28
CCRF-CEM = test system: CCRF-CEM
NCI-H460 = test system: NCI-H460
EKVX = test system: EKVX
A549 = test system: A549
SN12C = test system: SN12C
U-251 = test system: U-251
HCC 2998 = test system: HCC 2998
NCI-H226 = test system: NCI-H226
HOP-62 = test system: HOP-62
SW-620 = test system: SW-620
OVCAR-3 = test system: OVCAR-3
KM12 = test system: KM12
HCT-15 = test system: HCT-15
CAKI-1 = test system: CAKI-1
LOX IMVI = test system: LOX IMVI
HOP-18 = test system: HOP-18
OVCAR-4 = test system: OVCAR-4
SK-MEL-2 = test system: SK-MEL-2
UO-31 = test system: UO-31
K562 = test system: K562
SF-539 = test system: SF-539
COLO 205 = test system: COLO 205
IGROV-1 = test system: IGROV-1
OVCAR-8 = test system: OVCAR-8
Malme-3M = test system: Malme-3M
RXF 393 = test system: RXF 393

CCOC(=O)/C(I)=C/c1cc(OC)c(OC)c(OC)c1
GI50 (M19-MEL): 4.12 µM (inactive)
GI50 (786-0): 4.44 µM (inactive)
GI50 (SK-OV-3): 26.9 µM (inactive)
GI50 (RPMI-8226): 4.02 µM (inactive)
GI50 (MOLT-4): 7.01 µM (inactive)
GI50 (LXFL 529): 10.4 µM (inactive)
GI50 (KM-20L2): 3.21 µM (inactive)
GI50 (A498): 25.6 µM (inactive)
GI50 (HT-29): 4.55 µM (inactive)
GI50 (SNB-19): 7.64 µM (inactive)
GI50 (SR): 2.98 µM (inactive)
GI50 (XF498): 2.92 µM (inactive)
GI50 (ACHN): 7.14 µM (inactive)
GI50 (DMS-114): 2.92 µM (inactive)
GI50 (OVCAR-5): 6.52 µM (inactive)
GI50 (HOP-92): 11.6 µM (inactive)
GI50 (SK-MEL-5): 7.83 µM (inactive)
GI50 (TK-10): 19.3 µM (inactive)
GI50 (UACC-62): 4.5 µM (inactive)
GI50 (SF-295): 9.91 µM (inactive)
GI50 (UACC-257): 10.8 µM (inactive)
GI50 (M14): 3.87 µM (inactive)
GI50 (SNB-78): 28.2 µM (inactive)
GI50 (SNB-75): 28.8 µM (inactive)
GI50 (HL-60): 3.67 µM (inactive)
GI50 (NCI-H23): 3.08 µM (inactive)
GI50 (DLD-1): 6.03 µM (inactive)
GI50 (HCT-116): 3.26 µM (inactive)
GI50 (NCI-H522): 4.14 µM (inactive)
GI50 (SF-268): 1.36 µM (inactive)
GI50 (DMS-273): 6.68 µM (inactive)
GI50 (SK-MEL-28): 1.41 µM (inactive)
GI50 (CCRF-CEM): 1.93 µM (inactive)
GI50 (NCI-H460): 40.6 µM (inactive)
GI50 (EKVX): 15.8 µM (inactive)
GI50 (A549): 4.89 µM (inactive)
GI50 (SN12C): 4.62 µM (inactive)
GI50 (U-251): 6.11 µM (inactive)
GI50 (HCC 2998): 14.2 µM (inactive)
GI50 (NCI-H226): 4.69 µM (inactive)
GI50 (HOP-62): 26.9 µM (inactive)
GI50 (SW-620): 3.55 µM (inactive)
GI50 (OVCAR-3): 3.94 µM (inactive)
GI50 (KM12): 6.4 µM (inactive)
GI50 (HCT-15): 3.9 µM
GI50 (CAKI-1): 4.27 µM (inactive)
GI50 (LOX IMVI): 1.75 µM (inactive)
GI50 (HOP-18): 11.6 µM (inactive)
GI50 (OVCAR-4): 14.7 µM (inactive)
GI50 (SK-MEL-2): 49 µM (inactive)
GI50 (UO-31): 5.79 µM (inactive)
GI50 (K562): 3.86 µM (inactive)
GI50 (SF-539): 9.08 µM (inactive)
GI50 (COLO 205): 6.12 µM (inactive)
GI50 (IGROV-1): 22.2 µM (inactive)
GI50 (OVCAR-8): 6.37 µM (inactive)
GI50 (Malme-3M): 8.89 µM (inactive)

O=C(c1ccccc1)[C@H]1Nc2ccc(Cl)cc2[C@H]2c3ccccc3O[C@H]21
GI50 (M19-MEL): 19.1 µM (inactive)
GI50 (786-0): 16.6 µM (inactive)
GI50 (RPMI-8226): 27 µM (inactive)
GI50 (MOLT-4): 4.82 µM (inactive)
GI50 (LXFL 529): 15 µM (inactive)
GI50 (KM-20L2): 14.9 µM (inactive)
GI50 (A498): 12.1 µM (inactive)
GI50 (HT-29): 12.7 µM (inactive)
GI50 (SNB-19): 15.7 µM (inactive)
GI50 (SR): 16.5 µM (inactive)
GI50 (XF498): 14.7 µM (inactive)
GI50 (ACHN): 15.2 µM (inactive)
GI50 (DMS-114): 15.8 µM (inactive)
GI50 (OVCAR-5): 16 µM (inactive)
GI50 (SK-MEL-5): 13.2 µM (inactive)
GI50 (TK-10): 16.7 µM (inactive)
GI50 (UACC-62): 13.6 µM (inactive)
GI50 (SF-295): 15.5 µM (inactive)
GI50 (UACC-257): 2.45 µM (inactive)
GI50 (M14): 16.3 µM (inactive)
GI50 (SNB-78): 14.9 µM (inactive)
GI50 (SNB-75): 12.4 µM (inactive)
GI50 (NCI-H23): 14.2 µM (inactive)
GI50 (DLD-1): 14 µM (inactive)
GI50 (HCT-116): 17.2 µM (inactive)
GI50 (NCI-H522): 17.8 µM (inactive)
GI50 (SF-268): 18.1 µM (inactive)
GI50 (DMS-273): 18.7 µM (inactive)
GI50 (SK-MEL-28): 12.3 µM (inactive)
GI50 (NCI-H460): 16.5 µM (inactive)
GI50 (EKVX): 15.2 µM (inactive)
GI50 (A549): 14.6 µM (inactive)
GI50 (SN12C): 14.1 µM (inactive)
GI50 (U-251): 15.6 µM (inactive)
GI50 (HCC 2998): 16.8 µM (inactive)
GI50 (NCI-H226): > 10 µM (inactive)
GI50 (HOP-62): 18.1 µM (inactive)
GI50 (SW-620): 16.5 µM (inactive)
GI50 (OVCAR-3): 13.1 µM (inactive)
GI50 (KM12): 16.1 µM (inactive)
GI50 (HCT-15): 14.4 µM
GI50 (CAKI-1): 14 µM (inactive)
GI50 (LOX IMVI): 20.7 µM (inactive)
GI50 (HOP-18): 11.7 µM (inactive)
GI50 (OVCAR-4): 18.2 µM (inactive)
GI50 (SK-MEL-2): 13.5 µM (inactive)
GI50 (UO-31): 5.27 µM (inactive)
GI50 (K562): 14.5 µM (inactive)
GI50 (SF-539): 15 µM (inactive)
GI50 (COLO 205): 18.7 µM (inactive)
GI50 (IGROV-1): 17.7 µM (inactive)
GI50 (RXF 393): 10.1 µM (inactive)
GI50 (OVCAR-8): 16.4 µM (inactive)
GI50 (Malme-3M): 15.8 µM (inactive)

COc1ccc(C(c2c(O)c3ccccc3n(-c3ccccc3)c2=O)c2c(O)c3ccccc3n(-c3ccccc3)c2=O)cc1
GI50 (M19-MEL): > 100 µM (inactive)
GI50 (786-0): 25.4 µM (inactive)
GI50 (RPMI-8226): > 100 µM (inactive)
GI50 (MOLT-4): > 100 µM (inactive)
GI50 (LXFL 529): > 100 µM (inactive)
GI50 (KM-20L2): > 100 µM (inactive)
GI50 (SNB-19): > 100 µM (inactive)
GI50 (SR): 72.4 µM (inactive)
GI50 (XF498): 59.3 µM (inactive)
GI50 (ACHN): > 100 µM (inactive)
GI50 (DMS-114): > 100 µM (inactive)
GI50 (OVCAR-5): > 100 µM (inactive)
GI50 (HOP-92): 49.2 µM (inactive)
GI50 (SK-MEL-5): > 100 µM (inactive)
GI50 (TK-10): > 100 µM (inactive)
GI50 (SNB-78): > 100 µM (inactive)
GI50 (NCI-H23): > 100 µM (inactive)
GI50 (DLD-1): > 100 µM (inactive)
GI50 (HCT-116): > 100 µM (inactive)
GI50 (NCI-H522): > 100 µM (inactive)
GI50 (SF-268): > 100 µM (inactive)
GI50 (DMS-273): > 100 µM (inactive)
GI50 (SK-MEL-28): > 100 µM (inactive)
GI50 (CCRF-CEM): > 100 µM (inactive)
GI50 (EKVX): > 100 µM (inactive)
GI50 (A549): > 100 µM (inactive)
GI50 (SN12C): > 100 µM (inactive)
GI50 (U-251): > 100 µM (inactive)
GI50 (HCC 2998): > 100 µM (inactive)
GI50 (NCI-H226): > 100 µM (inactive)
GI50 (HOP-62): > 100 µM (inactive)
GI50 (SW-620): > 100 µM (inactive)
GI50 (OVCAR-3): > 100 µM (inactive)
GI50 (KM12): > 100 µM (inactive)
GI50 (HCT-15): > 100 µM
GI50 (CAKI-1): > 100 µM (inactive)
GI50 (LOX IMVI): > 100 µM (inactive)
GI50 (HOP-18): > 100 µM (inactive)
GI50 (OVCAR-4): > 100 µM (inactive)
GI50 (SK-MEL-2): > 100 µM (inactive)
GI50 (UO-31): > 100 µM (inactive)
GI50 (K562): > 100 µM (inactive)
GI50 (SF-539): > 100 µM (inactive)
GI50 (COLO 205): > 100 µM (inactive)
GI50 (RXF 393): > 100 µM (inactive)
GI50 (Malme-3M): > 100 µM (inactive)
